Laboratory results taken from patent US7514438B2, “Melanin concentrating hormone receptor antagonist” (Amgen, Inc., priority 2003, dated 2009).
Where two headings read alike, the source gives them in different places.

How the values were obtained:
[1] = target: T1, human MCH receptor (Homo sapiens, UniProt Q99705); test: hMCH FLIPR calcium mobilization assay; type: cell-based; conditions: 100 μM or less list; read-out: Ki in the hMCH FLIPR assay
T1 construct: expressed in transfected cells

[2] = target: T2, human MCH 1 receptor (hMCH1R) (Homo sapiens, UniProt Q99705); test: 125I-MCH ligand binding assay, hMCH
T2 construct: expressed in transfected cells; host or cells: HEK 293 (membranes)
Experimental: Human embryonic kidney cells (293 total) expressing either human, rat, or mouse MCH receptor were harvested from 150 mm culture dishes using PBS. Spinning at 1500 rpm for 2 minutes initially pelleted cells. The resulting pellet was then homogenized in 15 mL ice cold sucrose buffer (25 mM HEPES, 0.3 M sucrose, pH 7.4) with a motorized, glass fitted, Teflon® homogenizer. The homogenate was centrifuged at 48,000×g at 4° C. for 10 minutes, resuspended in 15 mL assay buffer (25 mM HEPES, 10 mM mgCl2, 0.2% BSA, 0.1 mg/mL STI, 0.1 mg/mL Pefabloc®, 1 μM Phosphoramidon, pH 7.4) with a Tissue-Tearor® (Biospec Products) and centrifuged again at 48,000×g for 10 minutes. The pellet was homogenized for a third time in 15 mL assay buffer using the Tissue-Tearor® and again centrifuged at 48,000×g for 10 minutes. The resulting pellet was resuspended in assay buffer at a wet weight concentration of 10-20 mg/mL.
Binding assays were determined as described below using mouse, rat or human MCH 1 receptors (mMCH1R, rMCH1R, and hMCH1R, respectively) expressed in HEK 293; IC50 values were calculated.
Binding assays were performed in 96-well U-bottom plates. Membranes (100 μg tissue) were incubated at 30° C. for 90 minutes in assay buffer with various peptides in the presence of 0.2 nM ^125I native-MCH (Perkin-Elmer Life Sciences, Boston, Mass.) in 100 μL total volume. Non-specific binding was assessed in the presence of 1 μM cold native-MCH. The reaction was terminated by rapid filtration through Unfilter-96 GF/C glass fiber filter plates (FilterMate® 196 Harvester, Packard Instrument Co., Meriden, Conn.) pre-soaked in PBS/0.5% BSA, followed by three washes with 300 μL ice-cold water. Bound radioactivity was determined using a TopCount® microplate scintillation and luminescence counter (Packard Instrument Co., Meriden, Conn.). Nonlinear regression analyses of drug concentration curves were performed using GraphPad Prism® (GraphPad Software, Inc., San Diego, Calif.).

[3] = target: rat MCH1 receptor (Rattus norvegicus, UniProt P97639); test: rMCH FLIPR calcium mobilization assay (CHOK1-Gqi cells); type: cell-based; design: expressed in transfected cells; host or cells: CHOK1-Gqi
Experimental: Pharmacological analyses were conducted using either a HT-PS100 device (Axiom Biotechnologies, San Diego, Calif.), which provides high-resolution dose-response fluorometric measurements of [Ca^++]i mobilization, or using a FLIPR® device (Molecular Devices, Sunnyvale, Calif.).
Materials: Pharmacological analysis was conducted using a FLIPR® device (Molecular Devices, Sunnyvale, Calif.). CHOK1-Gqi cells were stably transfected with the rat MCH1 receptor and maintained under G418 antibiotic pressure. FLIPR® assay buffer consisted of phenol red-free DMEM+2.5 mM probenecid. […]. Test compounds were prepared as 10 mM stocks in 100% DMSO and diluted to a top end working concentration of 10 μM in 96 well black, flat bottom, collagen-I coated plates (Becton Dickinson, Bedford, Mass.).
Methods: CHOK1-Gqi cells stably expressing MCH1R were maintained in Dulbeco's modified Eagle's medium (GIBCO/Life Technologies, Rockville, Md.) supplemented with 2 mM glutamine and 10% dialyzed fetal bovine serum (HyCLone, Logan, Utah) at 37° C., 5% CO2. Cells were harvested by 10′ treatment with Versene (GIBCO/Life Technologies) followed by trituration, washing twice with cold (4° C.) hybridoma medium (Serum/Protein free, with L-glutamine, sodium bicarbonate, MOPS buffer) (Sigma-Aldrich Corp, St. Louis, Mo.) and replated onto 96 well black, flat bottom, collagen-I coated plates to a density of 10,000 cells/well. The cells were then loaded with the fluorescent calcium indicator Fura-2 (Molecular Probes, Eugene, Oreg.) at 1.6 μM for 60′ at room temperature. The loaded cells were then washed twice with 90 μl/well of wash buffer (1×HBSS, 20 mM HEPES, 2.5 mM probenecid).
Receptor-stimulated intracellular calcium responses were detected using FLIPR® by monitoring increases in the Fura-2 fluorescence response.
Test compounds were screened for MCH1R activity in the FLIPR® for both agonist and antagonist action. Agonist mode challenges were conducted at a maximum gradient concentration of 1 μM. Antagonist activity was tested by 10 min pre-incubation of cells at a compound concentration of defined to be 300× the EC50 of MCH (typically 1 μM), with subsequent introduction of MCH at a concentration 5-fold of EC50 as determined in preliminary experiments. […].
Several fixed concentrations of antagonist compounds were prepared in 10-fold increments, and presented to the cells in a gradient of increasing MCH concentration. Values for compound pA2 were calculated by linear regression of MCH EC50s as a function of antagonist concentration.

[4] = target: T3, rat MCH 1 receptor (rMCH1R) (Rattus norvegicus, UniProt P97639); test: 125I-MCH ligand binding assay, rMCH
T3 construct: expressed in transfected cells; host or cells: HEK 293 (membranes)
Procedure, shortened: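 HEK293 membranes expressing rat or human MCH1R (100 µg tissue) were incubated for 90 min at 30 °C with 0.2 nM 125I-native-MCH and test compound in HEPES/MgCl2/BSA buffer with protease inhibitors, pH 7.4. Non-specific binding used 1 µM cold MCH. Filter-bound radioactivity gave IC50 by nonlinear regression.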

[5] = HEK 293 membranes, 0.2 nM 125I native-MCH, 100 μM or less list, read-out: IC50 in the hMCH binding assay
[6] = CHOK1-Gqi cells, rat MCH1 receptor, 100 μM or less list, read-out: Ki in the rMCH FLIPR assay
[7] = HEK 293 membranes, 0.2 nM 125I native-MCH, 100 μM or less list, read-out: IC50 in the rMCH binding assay
[8] = HEK 293 membranes, 0.2 nM 125I native-MCH, 100 nM or less list, read-out: IC50 in the hMCH binding assay
[9] = HEK 293 membranes, 0.2 nM 125I native-MCH, 100 nM or less list, read-out: IC50 in the rMCH binding assay

T2 sequence (Q99705 whole entry): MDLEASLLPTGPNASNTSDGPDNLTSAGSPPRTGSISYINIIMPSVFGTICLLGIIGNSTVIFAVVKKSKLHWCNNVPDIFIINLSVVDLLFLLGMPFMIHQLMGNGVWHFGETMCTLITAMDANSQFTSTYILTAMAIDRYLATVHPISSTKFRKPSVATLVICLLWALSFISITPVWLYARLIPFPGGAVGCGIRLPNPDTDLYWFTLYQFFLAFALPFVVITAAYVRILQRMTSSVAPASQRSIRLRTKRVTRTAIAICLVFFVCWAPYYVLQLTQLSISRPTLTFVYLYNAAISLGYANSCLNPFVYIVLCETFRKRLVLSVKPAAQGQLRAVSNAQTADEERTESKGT
T1 sequence (Q99705 whole entry): as above
Chain of rat MCH1 receptor (P97639 whole entry): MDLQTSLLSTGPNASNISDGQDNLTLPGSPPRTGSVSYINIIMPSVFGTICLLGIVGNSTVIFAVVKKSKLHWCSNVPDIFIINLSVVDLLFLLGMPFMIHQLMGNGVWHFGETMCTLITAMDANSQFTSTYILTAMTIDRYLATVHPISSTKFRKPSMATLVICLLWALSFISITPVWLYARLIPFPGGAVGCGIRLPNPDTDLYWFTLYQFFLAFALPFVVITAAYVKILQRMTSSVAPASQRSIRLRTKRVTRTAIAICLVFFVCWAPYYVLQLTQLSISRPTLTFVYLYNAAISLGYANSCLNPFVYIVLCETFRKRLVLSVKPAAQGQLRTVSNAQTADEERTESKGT
T3 sequence (P97639 whole entry): as above

| Ki [1] [µM] | IC50 [2, 5] [µM] | Ki [3, 6] [µM] | IC50 [4, 7] [µM] | IC50 [2, 8] [µM] | IC50 [4, 9] [µM] | Ki ([3]; CHOK1-Gqi cells, rat MCH1 receptor, 100 nM or less list, read-out: Ki in the rMCH FLIPR assay) [µM] | Compound | IC50 [4] [µM] | IC50 [2] [µM] | Ki [3] [µM] |
| --- | --- | --- | --- | --- | --- | --- | --- | --- | --- | --- |
| ≤ 100 | ≤ 100 | ≤ 100 | ≤ 100 | – | – | – | Cc1cccc(C)c1-n1nnnc1[C@H](c1cccc(C#N)c1)N1CCN(C/C=C/c2ccccc2)CC1 (stereo in doubt) [Compound 133, 3-{[1-(2,6-dimethylphenyl)-1H-tetrazol-5-yl]-[4-(3-phenylallyl)piperazin-1-yl]methyl}benzonitrile] | – | – | – |
| ≤ 100 | ≤ 100 | ≤ 100 | ≤ 100 | – | – | – | Cc1cccc(C)c1-n1nnnc1[C@H](c1cccc(C(F)(F)F)c1)N1CCN(C/C=C/c2ccccc2O)CC1 (racemic) [Compound 151, 2-(3-{4-[[1-(2,6-dimethylphenyl)-1H-tetrazol-5-yl]-(3-trifluoromethylphenyl)methyl]piperazin-1-yl}propenyl)phenol] | – | – | – |
| ≤ 100 | ≤ 100 | ≤ 100 | ≤ 100 | – | – | – | Cc1cccc(C)c1-n1nnnc1[C@H](c1cccc(C(F)(F)F)c1)N1CCN(Cc2cc3ccccc3n2C)CC1 (racemic) [Compound 148, 2-{4-[[1-(2,6-dimethylphenyl)-1H-tetrazol-5-yl]-(3-trifluoromethylphenyl)methyl]piperazin-1-ylmethyl}-1-methyl-1H-indole] | – | – | – |
| ≤ 100 | ≤ 100 | ≤ 100 | ≤ 100 | – | – | – | COc1ccc(/C=C/CN2CCN([C@@H](c3cccc(C(F)(F)F)c3)c3nnnn3-c3c(C)cccc3C)CC2)cc1 (racemic) [Compound 147, 1-[[1-(2,6-dimethylphenyl)-1H-tetrazol-5-yl]-(3-trifluoromethylphenyl)methyl]-4-[3-(4-methoxyphenyl)allyl]piperazine] | – | – | – |
| ≤ 100 | ≤ 100 | ≤ 100 | ≤ 100 | – | – | – | Cc1cccc(C)c1-n1nnnc1[C@H](c1cccc(C(F)(F)F)c1)N1CCN(Cc2c[nH]c3ccccc23)CC1 (racemic) [Compound 150, 3-{4-[[1-(2,6-dimethylphenyl)-1H-tetrazol-5-yl]-(3-trifluoromethylphenyl)methyl]piperazin-1-ylmethyl}-1H-indole] | – | – | – |
| ≤ 100 | ≤ 100 | ≤ 100 | ≤ 100 | ≤ 0.1 | ≤ 0.1 | – | Cc1cccc(C)c1-n1nnnc1[C@H](c1cccc(C(F)(F)F)c1)N1CCN(CC=C(c2ccccc2)c2ccccc2)CC1 (racemic) [Compound 144, 1-[[1-(2,6-dimethylphenyl)-1H-tetrazol-5-yl]-(3-trifluoromethylphenyl)methyl]-4-(3,3-diphenylallyl)piperazine] | – | – | – |

The remaining lines, values behind:

| Compound | Ki [1] [µM] | IC50 [2, 5] [µM] | Ki [3, 6] [µM] | IC50 [4, 7] [µM] | IC50 [2, 8] [µM] | IC50 [4, 9] [µM] | Ki ([3]; CHOK1-Gqi cells, rat MCH1 receptor, 100 nM or less list, read-out: Ki in the rMCH FLIPR assay) [µM] | IC50 [4] [µM] | IC50 [2] [µM] | Ki [3] [µM] |
| --- | --- | --- | --- | --- | --- | --- | --- | --- | --- | --- |
| Cc1cccc(C)c1-n1nnnc1[C@H](c1ccncc1)N1CCN(C/C=C/c2ccccc2)CC1 (racemic) [Compound 86, 1-{[1-(2,6-dimethylphenyl)-1H-tetrazol-5-yl]pyridin-4-ylmethyl}-4-(3-phenylallyl)piperazine] | ≤ 100 | ≤ 100 | ≤ 100 | – | – | – | – | – | – | – |
| C(=C\c1ccccc1)/CN1CCN([C@@H](c2ccccc2)c2nnnn2-c2ccc3[nH]ccc3c2)CC1 (racemic) [Compound 20] | ≤ 100 | ≤ 100 | ≤ 100 | ≤ 100 | ≤ 0.1 | – | – | – | – | – |
| Cc1cccc(C)c1-n1nnnc1[C@H](c1cccc(-c2ccccc2)c1)N1CCN(C/C=C/c2ccccc2)CC1 (racemic) [Compound 143, 1-{biphenyl-3-yl-[1-(2,6-dimethylphenyl)-1H-tetrazol-5-yl]methyl}-4-(3-phenylallyl)piperazine] | ≤ 100 | ≤ 100 | ≤ 100 | ≤ 100 | – | – | – | – | – | – |
| Cc1cccc(C)c1-n1nnnc1C(c1ccc(-c2ccccc2)cc1)N1CCN(C/C=C/c2ccccc2)CC1 (centres unmarked) [Compound 11, 1-{biphenyl-4-yl-[1-(2,6-dimethyiphenyl)-1H-tetrazol-5-yl]methyl}-4-(3-phenylallyl)piperazine] | – | ≤ 100 | ≤ 100 | ≤ 100 | – | ≤ 0.1 | ≤ 0.1 | – | – | – |
| Cc1cccc(C)c1-n1nnnc1[C@H](c1ccc(-n2ccnc2)cc1)N1CCN(C/C=C/c2ccccc2)CC1 (stereo in doubt) [Compound 135, 1-[[1-(2,6-dimethylphenyl)-1H-tetrazol-5-yl]-(4-imidazol-1-ylphenyl)methyl]-4-(3-phenylallyl)piperazine] | ≤ 100 | ≤ 100 | ≤ 100 | ≤ 100 | – | – | – | – | – | – |
| Cc1cccc(C)c1-n1nnnc1[C@H](c1cccc(Oc2cc(Cl)cc(Cl)c2)c1)N1CCN(C/C=C/c2ccccc2)CC1 (racemic) [Compound 87, 1-{[3-(3,5-dichloro-phenoxy)-phenyl]-[1-(2,6-dimethylphenyl)-1H-tetrazol-5-yl]methyl}-4-(3-phenylallyl)piperazine] | ≤ 100 | ≤ 100 | ≤ 100 | – | – | – | – | – | – | – |
| Cc1cccc(C)c1-n1nnnc1[C@H](c1cccc(Oc2ccccc2)c1)N1CCN(C/C=C/c2ccccc2)CC1 (racemic) [Compound 12, 1-[[1-(2,6-dimethyiphenyl)-1H-tetrazol-5-yl]-(3-phenoxyphenyl)methyl]-4-(3-phenylallyl)piperazine] | – | ≤ 100 | ≤ 100 | ≤ 100 | – | – | – | – | – | – |
| Cc1cccc(C)c1-n1nnnc1[C@@H](c1ccc(-n2ccnc2)cc1)N1CCN(C/C=C/c2ccccc2)CC1 (stereo in doubt) [Compound 134, 1-[[1-(2,6-dimethylphenyl)-1H-tetrazol-5-yl]-(4-imidazol-1-ylphenyl)methyl]-4-(3-phenylallyl)piperazine] | ≤ 100 | ≤ 100 | ≤ 100 | ≤ 100 | ≤ 0.1 | ≤ 0.1 | – | – | – | – |
| Cc1cccc(C)c1-n1nnnc1C1(N2CCN(C/C=C/c3ccccc3)CC2)CCCCC1 [Compound 92, 1-{1-[1-(2,6-dimethylphenyl)-1H-tetrazol-5-yl]cyclohexyl)-4-(3-phenylallyl)piperazine] | – | – | – | – | – | – | – | ≤ 100 | ≤ 100 | ≤ 100 |
